# Reference: US11684614B2, “Formulations of hydroxypyridonate actinide/lanthanide decorporation agents” (priority 2017, dated 2023)
# Experiment: Repeated-treatment efficacy for removing an intravenous dose of 238Pu (excretion, tissue retention, clinical observations), female and male arms
# Assay type: in vivo, Swiss-Webster mice
# Details: female mice; for ^238Pu percent increase in excretion, Total Excretion / ^238Pu percent increase in excretion, Total Feces / ^238Pu percent increase in excretion, Total Urine: over untreated control group; for ^238Pu percent tissue reduction, GI Tract / ^238Pu percent tissue reduction, Kidney / ^238Pu percent tissue reduction, Liver / ^238Pu percent tissue reduction, Soft Tissue / ^238Pu percent tissue reduction, Total Body / ^238Pu percent tissue reduction, Total Bone: vs untreated control group
# Protocol: The objective of this study was to characterize the efficacy of 3,4,3-L1(1,2-HOPO) at enhancing elimination from an internal plutonium burden in female and male Swiss-Webster mice administered a soluble citrate complex of ^238Pu and treated multiple times, starting at 24 hours after the exposure. Efficacy was evaluated by comparing the tissue contents, urinary and fecal excretions of ^238Pu in treated animals versus untreated animals.
# The medical countermeasure 3,4,3-L1(1,2-HOPO) was administered parenterally (ip) or orally (po) via consecutive injections or gavages (six daily or twelve twice daily) starting at 24 hours post contamination at the following four selected doses: 30 μmol/kg ip, 150 μmol/kg po, 300 μmol/kg po, and 600 μmol/kg po (equivalent to respective approximate human doses range of […], using the accepted conversion system of mouse doses into human equivalent doses—HED—based on body surface area). Oral doses also included the permeability enhancer selected during formulation development work.
# • Challenge isotope: ^238Pu • Challenge dose: 25 nCi (i.e., approximately 0.8 μCi/kg) • Route of contamination: Intravenous (iv) tail-vein • Route of treatment: Intraperitoneal Injection (ip) or Oral (po) • Frequency of treatment: Multiple (once- or twice-daily for 6 days) doses, starting 24 hr postcontamination • Treatment dose calculation: Dose calculations (mg/kg or μmol/kg) for the decorporation agent were based on the individual body weight measured after contamination. • Study Duration: 11 days, in-life
# c. […] Test article and control dose formulations were prepared within 1 day of dose administration, by weighing out the appropriate amount of test article, dispersing in vehicle. For ip solutions, the test article was used alone, while for oral suspensions, a mixture of test article and excipient (90:10, w:w) was used. The pH was adjusted to 7.0-7.4 for ip administration and 5.0-5.5 for oral administration with sterile NaOH. Dose formulations were prepared at room temperature and filter-sterilized. • Storage: 2-8° C.; refrigerated; protected from light. • Characterization: The concentration of each test article formulation was verified by high-performance liquid chromatography-mass spectrometry. • Test Article Handling: Test, reference, and control article formulations were handled with the use of eye protection, gloves, and a protective laboratory coat. • Correct Dose Assurance: The test article was weighed with calibrated balances. The administration of each dose formulation was properly documented, and the amount administered to each animal recorded.
# e. Experimental Procedures (In-Life Evaluations and Euthanasia) • Contamination: Single administration by intravenous (iv) tail-vein injection (0.2 mL injection volume) under isoflurane anesthesia. Three standard 0.2 mL injections were performed into polyethylene bottles and pre-loaded with aliquots of concentrated nitric acid on each injection day. Six female and six male mice were culled for necropsy 1 hr post-contamination and were used as standards. A11 standards were processed and counted together with the final samples to allow verification of the contamination dose. • Dose Administration: Single administration by intraperitoneal injection (ip) or oral gavage (po) under isoflurane anesthesia. • Mortality/Morbidity: Assessed at least once daily. • Clinical Observations: Recorded once daily (4 hr post-dose on day of treatment), or more often as clinical signs warranted. […]
# [1] = 30 μmol/kg, IP, 11-day necropsy
# [2] = 150 μmol/kg, 2 doses PO, 7-day necropsy
# [3] = 300 μmol/kg, 1 dose PO, 7-day necropsy
# [4] = 300 μmol/kg, 1 dose PO, 11-day necropsy
# [5] = 300 μmol/kg, 1 doses PO, 7-day necropsy
# [6] = 300 μmol/kg, 2 doses PO, 7-day necropsy
# [7] = 300 μmol/kg, PO, 11-day necropsy
# [8] = 600 μmol/kg, 1 dose PO, 7-day necropsy
# [9] = 600 μmol/kg, 1 dose PO, 11-day necropsy
# [10] = 600 μmol/kg, PO, 11-day necropsy
compound,measurement,setting,value
O=C(NCCCN(CCCCN(CCCNC(=O)c1cccc(=O)n1O)C(=O)c1cccc(=O)n1O)C(=O)c1cccc(=O)n1O)c1cccc(=O)n1O [Formulation 343],"^238Pu excretion, Total Excretion, Avg",[1],79.37 percent recovered dose
same,"^238Pu excretion, Total Feces, Avg",[1],41.80 percent recovered dose
same,"^238Pu excretion, Total Urine, Avg",[1],37.57 percent recovered dose
same,"^238Pu retention, GI Tract, Avg",[1],0.59 percent recovered dose
same,"^238Pu retention, Kidney, Avg",[1],0.11 percent recovered dose
same,"^238Pu retention, Liver, Avg",[1],2.79 percent recovered dose
same,"^238Pu retention, Soft Tissue, Avg",[1],1.40 percent recovered dose
same,"^238Pu retention, Total Body, Avg",[1],20.63 percent recovered dose
same,"^238Pu retention, Total Bone, Avg",[1],15.74 percent recovered dose
same,"^238Pu percent increase in excretion, Total Excretion",[1],157.74%
same,"^238Pu percent increase in excretion, Total Feces",[1],146.77%
same,"^238Pu percent increase in excretion, Total Urine",[1],172.05%
same,"^238Pu percent tissue reduction, GI Tract",[1],55.96%
same,"^238Pu percent tissue reduction, Kidney",[1],58.43%
same,"^238Pu percent tissue reduction, Liver",[1],76.81%
same,"^238Pu percent tissue reduction, Soft Tissue",[1],50.90%
same,"^238Pu percent tissue reduction, Total Body",[1],58.48%
same,"^238Pu percent tissue reduction, Total Bone",[1],52.58%
same,"^238Pu excretion, Total Excretion, Avg",[2],62.18 percent recovered dose
same,"^238Pu excretion, Total Feces, Avg",[2],33.16 percent recovered dose
same,"^238Pu excretion, Total Urine, Avg",[2],29.02 percent recovered dose
same,"^238Pu retention, GI Tract, Avg",[2],1.20 percent recovered dose
same,"^238Pu retention, Kidney, Avg",[2],0.23 percent recovered dose
same,"^238Pu retention, Liver, Avg",[2],12.83 percent recovered dose
same,"^238Pu retention, Soft Tissue, Avg",[2],1.64 percent recovered dose
same,"^238Pu retention, Total Body, Avg",[2],37.82 percent recovered dose
same,"^238Pu retention, Total Bone, Avg",[2],21.92 percent recovered dose
same,"^238Pu percent increase in excretion, Total Excretion",[2],129.85%
same,"^238Pu percent increase in excretion, Total Feces",[2],146.48%
same,"^238Pu percent increase in excretion, Total Urine",[2],114.93%
same,"^238Pu percent tissue reduction, GI Tract",[2],35.66%
same,"^238Pu percent tissue reduction, Kidney",[2],43.29%
same,"^238Pu percent tissue reduction, Liver",[2],31.41%
same,"^238Pu percent tissue reduction, Soft Tissue",[2],19.55%
same,"^238Pu percent tissue reduction, Total Body",[2],27.43%
same,"^238Pu percent tissue reduction, Total Bone",[2],24.67%
same,"^238Pu excretion, Total Excretion, Avg",[3],63.26 percent recovered dose
same,"^238Pu excretion, Total Feces, Avg",[3],34.34 percent recovered dose
same,"^238Pu excretion, Total Urine, Avg",[3],28.92 percent recovered dose
same,"^238Pu retention, GI Tract, Avg",[3],1.20 percent recovered dose
same,"^238Pu retention, Kidney, Avg",[3],0.26 percent recovered dose
same,"^238Pu retention, Liver, Avg",[3],10.22 percent recovered dose
same,"^238Pu retention, Soft Tissue, Avg",[3],1.74 percent recovered dose
same,"^238Pu retention, Total Body, Avg",[3],36.74 percent recovered dose
same,"^238Pu retention, Total Bone, Avg",[3],23.31 percent recovered dose
same,"^238Pu percent increase in excretion, Total Excretion",[3],142.38%
same,"^238Pu percent increase in excretion, Total Feces",[3],197.06%
same,"^238Pu percent increase in excretion, Total Urine",[3],107.09%
same,"^238Pu retention, GI Tract, Avg",[4],1.02 percent recovered dose
same,"^238Pu retention, Kidney, Avg",[4],0.17 percent recovered dose
same,"^238Pu retention, Liver, Avg",[4],6.02 percent recovered dose
same,"^238Pu retention, Soft Tissue, Avg",[4],2.06 percent recovered dose
same,"^238Pu retention, Total Body, Avg",[4],28.11 percent recovered dose
same,"^238Pu retention, Total Bone, Avg",[4],18.85 percent recovered dose
same,"^238Pu percent tissue reduction, GI Tract",[4],25.61%
same,"^238Pu percent tissue reduction, Kidney",[4],37.82%
same,"^238Pu percent tissue reduction, Liver",[4],55.06%
same,"^238Pu percent tissue reduction, Soft Tissue",[4],22.98%
same,"^238Pu percent tissue reduction, Total Body",[4],42.51%
same,"^238Pu percent tissue reduction, Total Bone",[4],39.58%
same,"^238Pu percent tissue reduction, GI Tract",[5],11.06%
same,"^238Pu percent tissue reduction, Kidney",[5],20.17%
same,"^238Pu percent tissue reduction, Liver",[5],38.39%
same,"^238Pu percent tissue reduction, Soft Tissue",[5],25.25%
same,"^238Pu percent tissue reduction, Total Body",[5],33.88%
same,"^238Pu percent tissue reduction, Total Bone",[5],33.33%
same,"^238Pu excretion, Total Excretion, Avg",[6],66.57 percent recovered dose
same,"^238Pu excretion, Total Feces, Avg",[6],35.68 percent recovered dose
same,"^238Pu excretion, Total Urine, Avg",[6],30.90 percent recovered dose
same,"^238Pu retention, GI Tract, Avg",[6],1.25 percent recovered dose
same,"^238Pu retention, Kidney, Avg",[6],0.18 percent recovered dose
same,"^238Pu retention, Liver, Avg",[6],6.85 percent recovered dose
same,"^238Pu retention, Soft Tissue, Avg",[6],1.62 percent recovered dose
same,"^238Pu retention, Total Body, Avg",[6],33.43 percent recovered dose
same,"^238Pu retention, Total Bone, Avg",[6],23.54 percent recovered dose
same,"^238Pu percent increase in excretion, Total Excretion",[6],139.02%
same,"^238Pu percent increase in excretion, Total Feces",[6],157.58%
same,"^238Pu percent increase in excretion, Total Urine",[6],122.37%
same,"^238Pu percent tissue reduction, GI Tract",[6],33.06%
same,"^238Pu percent tissue reduction, Kidney",[6],56.34%
same,"^238Pu percent tissue reduction, Liver",[6],63.39%
same,"^238Pu percent tissue reduction, Soft Tissue",[6],20.76%
same,"^238Pu percent tissue reduction, Total Body",[6],35.85%
same,"^238Pu percent tissue reduction, Total Bone",[6],19.10%
same,"^238Pu excretion, Total Excretion, Avg",[7],71.89 percent recovered dose
same,"^238Pu excretion, Total Feces, Avg",[7],37.63 percent recovered dose
same,"^238Pu excretion, Total Urine, Avg",[7],34.27 percent recovered dose
same,"^238Pu percent increase in excretion, Total Excretion",[7],140.66%
same,"^238Pu percent increase in excretion, Total Feces",[7],162.86%
same,"^238Pu percent increase in excretion, Total Urine",[7],122.35%
same,"^238Pu excretion, Total Excretion, Avg",[8],67.37 percent recovered dose
same,"^238Pu excretion, Total Feces, Avg",[8],30.80 percent recovered dose
same,"^238Pu excretion, Total Urine, Avg",[8],36.57 percent recovered dose
same,"^238Pu retention, GI Tract, Avg",[8],1.24 percent recovered dose
same,"^238Pu retention, Kidney, Avg",[8],0.23 percent recovered dose
same,"^238Pu retention, Liver, Avg",[8],12.48 percent recovered dose
same,"^238Pu retention, Soft Tissue, Avg",[8],1.62 percent recovered dose
same,"^238Pu retention, Total Body, Avg",[8],32.63 percent recovered dose
same,"^238Pu retention, Total Bone, Avg",[8],17.06 percent recovered dose
same,"^238Pu percent increase in excretion, Total Excretion",[8],151.63%
same,"^238Pu percent increase in excretion, Total Feces",[8],176.75%
same,"^238Pu percent increase in excretion, Total Urine",[8],135.42%
same,"^238Pu percent tissue reduction, GI Tract",[8],8.30%
same,"^238Pu percent tissue reduction, Kidney",[8],29.85%
same,"^238Pu percent tissue reduction, Liver",[8],24.79%
same,"^238Pu percent tissue reduction, Soft Tissue",[8],30.25%
same,"^238Pu percent tissue reduction, Total Body",[8],41.28%
same,"^238Pu percent tissue reduction, Total Bone",[8],51.23%
same,"^238Pu retention, GI Tract, Avg",[9],0.83 percent recovered dose
same,"^238Pu retention, Kidney, Avg",[9],0.14 percent recovered dose
same,"^238Pu retention, Liver, Avg",[9],5.60 percent recovered dose
same,"^238Pu retention, Soft Tissue, Avg",[9],2.01 percent recovered dose
same,"^238Pu retention, Total Body, Avg",[9],26.78 percent recovered dose
same,"^238Pu retention, Total Bone, Avg",[9],18.20 percent recovered dose
same,"^238Pu percent tissue reduction, GI Tract",[9],39.39%
same,"^238Pu percent tissue reduction, Kidney",[9],48.77%
same,"^238Pu percent tissue reduction, Liver",[9],58.17%
same,"^238Pu percent tissue reduction, Soft Tissue",[9],24.63%
same,"^238Pu percent tissue reduction, Total Body",[9],45.22%
same,"^238Pu percent tissue reduction, Total Bone",[9],41.64%
same,"^238Pu excretion, Total Excretion, Avg",[10],73.22 percent recovered dose
same,"^238Pu excretion, Total Feces, Avg",[10],34.70 percent recovered dose
same,"^238Pu excretion, Total Urine, Avg",[10],38.52 percent recovered dose
same,"^238Pu percent increase in excretion, Total Excretion",[10],143.25%
same,"^238Pu percent increase in excretion, Total Feces",[10],150.20%
same,"^238Pu percent increase in excretion, Total Urine",[10],137.53%
